In ChEMBL document CHEMBL1201862, “PubChem BioAssay data set” (2004):
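Grown in 96-well plates, cells were treated for 48 hours with each compound at five concentrations. Insufficient inhibition: endpoint recorded as highest concentration tested. GI50: concentration for 50% inhibition of growth.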 Active and inactive are the calls of the source. Rule as the data show it: active = GI50 up to about 1.1 µM and inactive = higher.

Tests used:
Experiment in all cases: DTP human tumour cell line panel, 48 h
TK-10 = test system: TK-10
UO-31 = test system: UO-31
SNB-19 = test system: SNB-19
HL-60 = test system: HL-60
OVCAR-3 = test system: OVCAR-3
OVCAR-8 = test system: OVCAR-8
ACHN = test system: ACHN
NCI/ADR-RES = test system: NCI/ADR-RES
DU-145 = test system: DU-145
HT-29 = test system: HT-29
SF-295 = test system: SF-295
HOP-92 = test system: HOP-92
NCI-H226 = test system: NCI-H226
K562 = test system: K562
CCRF-CEM = test system: CCRF-CEM
OVCAR-4 = test system: OVCAR-4
A549 = test system: A549
MCF7 = test system: MCF7
MDA-MB-435 = test system: MDA-MB-435
SK-MEL-2 = test system: SK-MEL-2

Compound | GI50 (TK-10) | GI50 (UO-31) | GI50 (SNB-19) | GI50 (HL-60) | GI50 (OVCAR-3) | GI50 (OVCAR-8) | GI50 (ACHN) | GI50 (NCI/ADR-RES) | GI50 (DU-145) | GI50 (HT-29) | GI50 (SF-295) | GI50 (HOP-92) | GI50 (NCI-H226) | GI50 (K562) | GI50 (CCRF-CEM) | GI50 (OVCAR-4) | GI50 (A549) | GI50 (MCF7) | GI50 (MDA-MB-435) | GI50 (SK-MEL-2)
CC1=CC(C)C/C=C/C2C3OC3(C)C(C)C3C(Cc4c[nH]c5ccccc45)NC(=O)C23C(=O)C=CC(=O)C1O (stereo not drawn) | 1.53 µM (inactive) | 1.96 µM (inactive) | 11 µM (inactive) | 1.61 µM (inactive) | 5.26 µM (inactive) | 19.5 µM (inactive) | 1.35 µM (inactive) | 24.3 µM (inactive) | 14.1 µM (inactive) | 1.42 µM (inactive) | 11.9 µM (inactive) | 0.9 µM (active) | 12.9 µM (inactive) | 3.06 µM (inactive) | 0.247 µM (active) | 11.8 µM (inactive) | 8.3 µM (inactive) | 5.78 µM (inactive) | 17.9 µM (inactive) | 15.8 µM (inactive)
COc1ccc(OC)c2c1-c1nnnn1CCC2(C)C | > 100 µM (inactive) | > 100 µM (inactive) | > 100 µM (inactive) | > 100 µM (inactive) | > 100 µM (inactive) | > 100 µM (inactive) | > 100 µM (inactive) | > 100 µM (inactive) | > 100 µM (inactive) | > 100 µM (inactive) | > 100 µM (inactive) | > 100 µM (inactive) | > 100 µM (inactive) | > 100 µM (inactive) | > 100 µM (inactive) | > 100 µM (inactive) | – | > 100 µM (inactive) | > 100 µM (inactive) | > 100 µM (inactive)
Cc1ccc(O)c(C(=O)/C=C/c2ccccc2)c1 | > 100 µM (inactive) | > 100 µM (inactive) | > 100 µM (inactive) | 23.1 µM (inactive) | > 100 µM (inactive) | > 100 µM (inactive) | > 100 µM (inactive) | 53.5 µM (inactive) | > 100 µM (inactive) | > 100 µM (inactive) | > 100 µM (inactive) | > 100 µM (inactive) | > 100 µM (inactive) | > 100 µM (inactive) | > 100 µM (inactive) | 78.9 µM (inactive) | > 100 µM (inactive) | > 100 µM (inactive) | > 100 µM (inactive) | > 100 µM (inactive)
COc1cc(C=C2C(=O)NC(=S)NC2=O)cc(OC)c1OC | > 100 µM (inactive) | > 100 µM (inactive) | > 100 µM (inactive) | > 100 µM (inactive) | > 100 µM (inactive) | > 100 µM (inactive) | > 100 µM (inactive) | > 100 µM (inactive) | > 100 µM (inactive) | > 100 µM (inactive) | > 100 µM (inactive) | > 100 µM (inactive) | > 100 µM (inactive) | > 100 µM (inactive) | > 100 µM (inactive) | > 100 µM (inactive) | > 100 µM (inactive) | > 100 µM (inactive) | > 100 µM (inactive) | > 100 µM (inactive)
CCC1=NC(N/N=C/c2ccco2)=N/C1=C\c1ccccc1O | 59.4 µM (inactive) | 11.6 µM (inactive) | 47.9 µM (inactive) | 27.4 µM (inactive) | – | 25.4 µM (inactive) | 21.9 µM (inactive) | 24.5 µM (inactive) | 55.6 µM (inactive) | 36 µM (inactive) | 44.2 µM (inactive) | 70 µM (inactive) | 28.4 µM (inactive) | 56.5 µM (inactive) | 12.7 µM (inactive) | 2.86 µM (inactive) | 41.1 µM (inactive) | 17.9 µM (inactive) | 29.5 µM (inactive) | 25.9 µM (inactive)
